These are literature values, as cited in patent US20120065140A1, “Biomarkers for the Diagnosis of Autoimmune Disease” (priority 2010, published 2012).

For `CN(Cc1cnc2nc(N)nc(N)c2n1)c1ccc(C(=O)N[C@@H](CCC(=O)O)C(=O)O)cc1` [MTX, Methotrexate], the onset of action (rheumatoid arthritis) is recorded as 4-6 weeks. The “patients having some response” value (rheumatoid arthritis patients) is listed as 70%.
